Results from patent US20210227814A1, “A TRANSGENIC INVERTEBRATE MODEL FOR ALZHEIMER'S DISEASE AND USE THEREOF” (National Center for Geriatrics and Gerontology, priority 2017, published 2021).

What was measured:
Type in all cases: in vivo
[1] = system: transgenic Drosophila expressing GALT6 and SAT1; assay: LC-MS of GM3 ganglioside production in transgenic Drosophila; conditions: Neu5Ac feeding (+) vs (−), 10 mM Neu5Ac/150 mM sucrose solution, heads of adults
Procedure: The obtained Drosophila strains were grown on Ebios Cornmeal Sucrose Agar medium at a temperature of 25° C., and in a light-dark cycle of 12 hours. In order to provide a sialic acid donor substrate Neu5Ac, Drosophila was allowed to freely lick filter paper soaked with a 10 mM Neu5Ac/150 mM sucrose solution for 24 hours every other day for 1 to 2 weeks. In order to check whether GM3 ganglioside is produced in the transgenic Drosophila strains prepared, liquid chromatography mass spectrometry (LC-MS) was carried out. The spectrometry was carried out with respect to the following Drosophila strains: (1) wild type (Neu5Ac feeding (−)) (negative control) (2) transgenic Drosophila expressing GALT6 alone (Neu5Ac feeding (−)), (3) transgenic Drosophila expressing GALT6 and SAT1 (Neu5Ac feeding (−)), (4) transgenic Drosophila expressing GALT6 and SAT1 (Neu5Ac feeding (+)), (5) transgenic Drosophila expressing SAT1 alone (Neu5Ac feeding (+)), and (6) transgenic Drosophila expressing GALT6, SAT1 and GNE (Neu5Ac feeding (−)). For each of the transgenic Drosophila strains, 200 to 1000 heads of adults were collected. To the heads, TBS buffer (50 mM Tris-HCl (pH7.6), 150 mM NaCl) was added, and the mixture was homogenized, and then dried. The obtained pellet was suspended in a solution mixture of chloroform: methanol (v/v=2:1) and a lipid extraction liquid was collected. […]

[2] = system: transgenic Drosophila strain expressing GALT6, SAT1 and Dut40; assay: Western blotting of aggregated Aβ (TBS insoluble fraction) in brain tissue; conditions: Neu5Ac feeding (+) compared to (−), GALT6, SAT1 and Dut40 flies
Procedure: The obtained Drosophila strains were grown on Ebios Cornmeal Sucrose Agar medium at a temperature of 25° C., and in a light-dark cycle of 12 hours. In order to provide a sialic acid donor substrate Neu5Ac, Drosophila was allowed to freely lick filter paper soaked with a 10 mM Neu5Ac/150 mM sucrose solution for 24 hours every other day for 1 to 2 weeks. To confirm whether of GM3 ganglioside-dependent aggregated Aβ is accumulated in the transgenic Drosophila co-expressing GM3 ganglioside and Dut40, a sample prepared from the brain tissue of a transgenic Drosophila strain expressing GALT6, SAT1 and Dut40, was subjected to western blotting. From 100 heads of adults of each of the transgenic Drosophila strain expressing GALT6, SAT1 and Dut40 (Neu5Ac feeding (−)) and the transgenic Drosophila expressing GALT6, SAT1 and Dut40 (Neu5Ac feeding (+)), were collected, homogenized in TBS buffer and subjected to ultracentrifugation (100,000 g, one hour, 4° C.). The supernatant was collected (TBS soluble fraction). The remaining sediment was again homogenized in 100% formic acid and centrifuged (14,000 rpm, 20 minutes, 25° C.) to remove unnecessary components. […] Bands were detected by ECL western blotting detection system (GE Healthcare Life Sciences). The bands detected were analyzed by Image Analysis Software (ImageJ, made by the National Institutes of Health) to convert into numerical values. […]

[3] = system: transgenic Drosophila strains expressing Dut40; assay: Western blotting of aggregated Aβ in Drosophila expressing only Dut40; conditions: Neu5Ac feeding (−) or (+); flies expressing Dut40 only

SMILES: CC(=O)N[C@H]1[C@H]([C@@H](O)[C@@H](O)CO)O[C@@](O)(C(=O)O)C[C@@H]1O [Neu5Ac]
- production of GM3 ganglioside [1]: confirmed
- amount of aggregated Dut40 [2]: increased
- effect on the aggregation of Dut40 [3]: does not have an effect
